What follows are compounds tested against Arachidonate 15-lipoxygenase (Oryctolagus cuniculus) (assay: Inhibitory activity against reticulocyte 15-lipoxygenase in rabbit was evaluated.).

IC50	Structure (SMILES)
> 25 µM	COc1cc(CCc2ccc(NC(=O)c3ccc(C)cc3O)cc2)ccc1O [2-Hydroxy-N-{4-[2-(4-hydroxy-3-methoxy-phenyl)-ethyl]-phenyl}-4-methyl-benzamide]
1.2 µM	O=C(Nc1ccc(CCc2ccc(O)c(O)c2)cc1)c1cccc(Cl)c1O [3-Chloro-N-{4-[2-(3,4-dihydroxy-phenyl)-ethyl]-phenyl}-2-hydroxy-benzamide]
> 25 µM	O=C(Nc1ccc(CCc2ccc(O)c(O)c2)cc1)c1ccc(-c2ccccc2)cc1O [3-Hydroxy-biphenyl-4-carboxylic acid {4-[2-(3,4-dihydroxy-phenyl)-ethyl]-phenyl}-amide]
1.5 µM	O=C(Nc1ccc(CCc2ccc(O)c(O)c2)cc1)c1cc(Br)ccc1O [5-Bromo-N-{4-[2-(3,4-dihydroxy-phenyl)-ethyl]-phenyl}-2-hydroxy-benzamide]
5 µM	O=C(Nc1ccc(CCc2ccc(O)c(O)c2)cc1)c1ccc(O)cc1O [N-{4-[2-(3,4-Dihydroxy-phenyl)-ethyl]-phenyl}-2,4-dihydroxy-benzamide]
5 µM	Cc1ccc(C(=O)N(C)c2ccc(CCc3ccc(O)c(O)c3)cc2)c(O)c1 [N-{4-[2-(3,4-Dihydroxy-phenyl)-ethyl]-phenyl}-2-hydroxy-4,N-dimethyl-benzamide]
> 25 µM	O=C(O)c1cccc(C(=O)Nc2ccc(CCc3ccc(O)c(O)c3)cc2)c1O [N-{4-[2-(3,4-Dihydroxy-phenyl)-ethyl]-phenyl}-2-hydroxy-isophthalamic acid]
> 25 µM	COc1ccc(CCc2ccc(NC(=O)c3ccccc3O)cc2)cc1OC [N-{4-[2-(3,4-Dimethoxy-phenyl)-ethyl]-phenyl}-2-hydroxy-benzamide]
